Experimental data as given in PubChem BioAssay AID256 (DTP/NCI, 2004).
Inconclusive results and toxic doses are left out.

Tested on: CD2F1 mice, L1210 leukemia ip, survival T/C
Experiment: NCI In Vivo Anticancer Drug Screen. Data for tumor model L1210 Leukemia (intraperitoneal) in CD2F1 (CDF1) mice
Details: endpoint: mean survival time, higher = longer survival
Outline: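 Antitumor effect is scored in animals hosting a serially transplanted tumor. Values compare compound-dosed animals against vehicle-only controls as a simple quotient.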

[1] = dose: 100.0 mg/kg/injection, schedule: Q04DX003 (ip), vehicle: saline with Tween-80
[2] = dose: 200.0 mg/kg/injection, schedule: Q04DX003 (ip), vehicle: saline with Tween-80
[3] = dose: 400.0 mg/kg/injection, schedule: Q04DX003 (ip), vehicle: saline with Tween-80
[4] = dose: 200.0 mg/kg/injection, schedule: Q01DX009 (ip), vehicle: saline with Tween-80
[5] = dose: 100.0 mg/kg/injection, schedule: Q01DX001 (ip), vehicle: saline

COC(=O)C1(C(=O)OC)CC1C(=O)c1ccccc1 (stereo not drawn)
T/C [1]: 98 % of control | T/C [2]: 98 % of control | T/C [3]: 95 % of control

O=C1c2ccccc2C(=O)N1CCBr
T/C (dose: 100.0 mg/kg/injection, schedule: Q01DX001 (ip), vehicle: saline with Tween-80): 102 % of control | T/C (dose: 200.0 mg/kg/injection, schedule: Q01DX001 (ip), vehicle: saline with Tween-80): 109 % of control | T/C (dose: 400.0 mg/kg/injection, schedule: Q01DX001 (ip), vehicle: saline with Tween-80): 111 % of control

CS(=O)(=O)c1nccc2ccccc12
T/C (dose: 100.0 mg/kg/injection, schedule: Q04DX003 (ip), vehicle: saline): 90 % of control | T/C (dose: 200.0 mg/kg/injection, schedule: Q04DX003 (ip), vehicle: saline): 88 % of control | T/C (dose: 400.0 mg/kg/injection, schedule: Q04DX003 (ip), vehicle: saline): 95 % of control

CCOc1ccccc1C1N(C)CCCN1C
T/C (dose: 6.25 mg/kg/injection, schedule: Q01DX009 (ip), vehicle: saline with Tween-80): 105 % of control | T/C (dose: 12.5 mg/kg/injection, schedule: Q01DX009 (ip), vehicle: saline with Tween-80): 100 % of control | T/C (dose: 25.0 mg/kg/injection, schedule: Q01DX009 (ip), vehicle: saline with Tween-80): 110 % of control

Nc1ccc(-c2ccc(N)cc2)cc1
T/C (dose: 100.0 mg/kg/injection, schedule: Q01DX009 (ip), vehicle: saline with Tween-80): 94 % of control | T/C [1]: 101 % of control | T/C [4]: 90 % of control | T/C [2]: 101 % of control | T/C (dose: 400.0 mg/kg/injection, schedule: Q01DX009 (ip), vehicle: saline with Tween-80): 100 % of control | T/C [3]: 96 % of control

CCCN1CCc2cc3c(cc2C1)OCO3
T/C [5]: 100 % of control

CCC12C=CC(OC)(CC1)C(C#N)C2 (stereo not drawn)
T/C (dose: 50.0 mg/kg/injection, schedule: Q04DX002 (ip), vehicle: saline with Tween-80): 103 % of control | T/C (dose: 100.0 mg/kg/injection, schedule: Q04DX002 (ip), vehicle: saline with Tween-80): 100 % of control | T/C (dose: 200.0 mg/kg/injection, schedule: Q04DX002 (ip), vehicle: saline with Tween-80): 91 % of control

CC(=O)C(C(C)=O)C1C=CC=CC=C1
T/C (dose: 50.0 mg/kg/injection, schedule: Q01DX009 (ip), vehicle: saline with Tween-80): 100 % of control | T/C [4]: 94 % of control

O=S(=O)(O)N=Nc1ccc(OCc2ccccc2)cc1
T/C [5]: 100 % of control | T/C (dose: 200.0 mg/kg/injection, schedule: Q01DX001 (ip), vehicle: saline): 100 % of control | T/C (dose: 400.0 mg/kg/injection, schedule: Q01DX001 (ip), vehicle: saline): 97 % of control

CN(C)P(=O)(N(C)C)N(C)C
T/C (dose: 100.0 mg/kg/injection, schedule: Q01DX009 (ip), vehicle: saline): 105 % of control | T/C (dose: 200.0 mg/kg/injection, schedule: Q01DX009 (ip), vehicle: saline): 104 % of control | T/C (dose: 400.0 mg/kg/injection, schedule: Q01DX009 (ip), vehicle: saline): 107 % of control

CN(C)c1cc2c3c(c1)CCCN3CCC2
T/C (dose: 3.13 mg/kg/injection, schedule: Q01DX009 (ip), vehicle: saline): 98 % of control | T/C (dose: 6.25 mg/kg/injection, schedule: Q01DX009 (ip), vehicle: saline): 109 % of control | T/C (dose: 12.5 mg/kg/injection, schedule: Q01DX009 (ip), vehicle: saline): 96 % of control

O=C(CC(=O)Oc1ccc(Cl)cc1Cl)Oc1ccc(Cl)cc1Cl
T/C [1]: 97 % of control | T/C [2]: 101 % of control | T/C [3]: 95 % of control

C1=CC2C3c4ccccc4C(C2C1)[n+]1ccccc13 (stereo not drawn)
T/C (dose: 12.5 mg/kg/injection, schedule: Q04DX003 (ip), vehicle: Klucel (hydroxypropylcellulose) (HPC)): 95 % of control | T/C (dose: 25.0 mg/kg/injection, schedule: Q04DX003 (ip), vehicle: Klucel (hydroxypropylcellulose) (HPC)): 97 % of control | T/C (dose: 50.0 mg/kg/injection, schedule: Q04DX003 (ip), vehicle: Klucel (hydroxypropylcellulose) (HPC)): 93 % of control

C=CCNC(=O)c1ccc[n+](CC(=O)Nc2ccccc2)c1
T/C [1]: 103 % of control

CC(=O)C(C(C)=O)C(c1ccccn1)C(C(C)=O)C(C)=O
T/C [1]: 106 % of control | T/C [2]: 98 % of control | T/C [3]: 93 % of control
